Measured values published in paper PMC9026172, “Pharmacodynamics, Network Pharmacology, and Pharmacokinetics of Chinese Medicine Formula 9002A in the Treatment of Alzheimer’s Disease” (Frontiers in Pharmacology, 2022).
Read-outs that look alike come from different tables or passages of the source.

Experiments:
[1] = system: Aβ deposition and glial cell activation in the brain; parameters: method as in Hu et al. (2014); details: transgenic mice; ref Hu et al. (2014); cited from earlier work
[2] = Absorbed constituents and pharmacokinetics in rat plasma after Formula 9002A (UPLC-QTof-MS); details: for half-life: SD, rat; for Fold increase of mean residence time after Formula 9002A vs monomer: vs administration of a monomer; for Fold increase of half-life after Formula 9002A vs monomer: vs intragastric or intravenous monomer from literature
Method: The supernatant were obtained and concentrated, then dissolved with 50% methanol–water at 4°C for LC-MS/MS analysis.
Waters Xevo G2-XS QTof-MS and Masslynx software were used to acquire LC-MS/MS raw data. Chromatographic separation on the Waters Acquity UPLC HSS T3 column was performed on the samples. The mobile phases consisted of (A) 0.1% formic acid in water and (B) acetonitrile. […] The flow rate was set at 0.3 ml/min. The temperatures of the column and the auto sampler were maintained at 40 and 4°C, respectively. The injection volume was 5 μl.
MS conditions: positive and negative ion electrospray modes were both used. Capillary voltages were set at 3 kV for the positive mode and 2.5 kV for the negative mode. Source temperature was set as 100 °C. Nitrogen was used as the nebulizer and auxiliary gas; flow rates and temperature of desolvation gas were 1,000 L/h and 400°C, respectively. The range of data acquisition was from 50 to 1,000 m/z, and the scan time was set to 0.2 s. MS^E analysis was performed with 6 eV for the low collision energy scan and 35 eV for the high collision energy scan.
The absorbed components were identified by the exact molecular mass, molecular formula, and MS^2 fragment data compared with the standard substances and literature data. The DAS 3.3.0 software was used for calculating the terminal elimination half-life (t1/2) and mean residence time (MRT).

[3] = system: 3xTg AD mice; parameters: method as in Liu et al., 2013; details: after 8 months of treatment; ref Liu et al., 2013; cited from earlier work
[4] = parameters: method as in Naseri-Nosar and Ziora, 2018; details: ref Naseri-Nosar and Ziora, 2018, cited from earlier work
[5] = system: tight junction proteins (such as claudin-5 and occludin); parameters: method as in Gibson et al., 2014; details: by inhibiting the activation of MMP-9; ref Gibson et al., 2014; cited from earlier work
[6] = system: Nrf2 and HO-1; parameters: method as in Hindam et al., 2014; details: streptozotocin-induced cognitive dysfunction; ref Hindam et al., 2014; cited from earlier work

OCc1ccc(O[C@@H]2O[C@H](CO)[C@@H](O)[C@H](O)[C@H]2O)cc1 [gastrodin]
Aβ deposition and glial cell activation in the brain [1]: significantly reduce Aβ deposition and glial cell activation
half-life ([2]; in vivo): 2.58 h
Fold increase of mean residence time after Formula 9002A vs monomer ([2]; plasma): ~2 fold
Fold increase of half-life after Formula 9002A vs monomer ([2]; plasma): ~2 fold

NC(=O)c1cccnc1 [niacinamide]
Cognitive function [3]: could be improved

OC[C@H]1O[C@@H](OCCc2ccc(O)cc2)[C@H](O)[C@@H](O)[C@@H]1O [salidroside]
half-life ([4]; gavage of salidroside monomer): 0.64 h
half-life ([4]; intravenous injection of salidroside monomer): 1.16 h
half-life ([2]; plasma): 2.12 h
Fold increase of mean residence time after Formula 9002A vs monomer ([2]; plasma): ~2 fold
Fold increase of half-life after Formula 9002A vs monomer ([2]; plasma): 2- to 3 fold
Tight junction proteins / BBB damage [5]: reversed the decrease in tight junction proteins

O=c1ccc2ccc(O)cc2o1 [umbelliferone]
Content of Nrf2 and HO-1 [6]: significantly increase
